Data from patent US5328913A, “Minoxidil analogs as inhibitors of cell proliferation and lysyl hydroxylase” (priority 1992, dated 1994).
pIC50: −log10 of the molar value. Entries after “also recorded” stand apart in the source; their conditions may differ.

Legend:
Type in all cases: cell-based
lysyl hydroxylase [1] = experiment: Lysyl hydroxylase activity in extracts of treated human skin fibroblasts (Example 1, tritium-release assay); conditions: for Lysyl hydroxylase activity (%) / effect on lysyl hydroxylase activity (in words): 72 h; for Lysyl hydroxylase activity (%): 1% ethanol; for effect on lysyl hydroxylase activity (in words): cultured fibroblasts, Example 1; for increase of the level of lysyl hydroxylase activity: 72 h (Table I text)
Protocol: (§1) Cultures of human skin fibroblasts grown to confluence were incubated for 72 h in medium supplemented with 1% ethanol containing various concentrations of minoxidil or deoxyminoxidil as indicated. Cells were then harvested, and the enzyme activities in extracts of these cells were measured by tritium-release assays (Murad and Pinnell, J. Biol. Chem. 262:11,973 (1987)). The results are expressed as percentages of zero-concentration values.
as §1, with “with 1% acetone containing various concentrations of minoxidil sulfate,” for “deoxyminoxidil”, “tritium release” for “tritium-release”
Skin fibroblast cultures derived from an apparently normal child (GM05659) were obtained from the Institute for Medical Research, Camden, N.J. The cells were subcultured by trypsinization and used before 25 population doublings. Typically, 4×10^5 cells were seeded onto 100-mm (diameter) plastic petri dishes and allowed to grow in 10 ml of Dulbecco's modified Eagle's minimum essential medium containing 5.6 mM glucose, buffered in pH 7.4 with 24 mM sodium biocarbonate/25 mM Hepes and supplemented with 20% (v/v) calf serum which had been inactivated for 30 min at 56° C. The cells were incubated at 37° C. in a humidified atmosphere of 5% CO2 plus 95% air.
After a week, the medium was replaced with medium supplemented with 0.5% heat-inactivated diaylzed calf serum, and the incubation was continued for 72 h in the presence of minoxidil or one of its structural analogs. The compounds were dissolved in 95% ethanol, except minoxidil sulfate which was dissolved in acetone; the final solvent concentration was 1% (v/v). During the last 3 h of incubation, cells received 100 μM Na L-ascorbate to ensure complete hydroxylation of the polypeptide precursors of precollagen (Murad et al, J. Invest. Dermatol. 75:404 (1980)).
The medium was then removed and the cells were washed twice with a solution containing 0.14 M NaCl, 5 mM KCl, 0.3 mM Na2 PO4, and 0.4 mM KH2 PO4, adjusted to pH 7.4. The cells were detached from the plates with a solution containing 0.05% trypsin, 0.54 mM EDTA, 5.5mM glucose, 6.90mM NaHCO3, […], and 5 mM KCl. The trypsinization was terminated with 2 vol of 20% serum-supplemented medium, and the cell number in an aliquot of the suspension was determined using a Coulter counter.
The detached cells were collected by centrifugation at 500g for 6 min at 4° C. washed twice by suspending in phosphate-buffered NaCl/KCl as above, and then centrifuged. The cell pellet was suspended in a medium (1 ml/5×10^6 cells) containing 0.2 M NaCl, 0.1 M glycine, 50 μM dithiothreitol, 20 mM Tris-HCl, buffer (pH 7.5), 0.1% Triton X-100, and 0.01% soybean trypsin inhibitor. The suspension was sonicated for 30 s using a Branson sonifier cell disrupter. The lysate was centrifuged at 27,000g for 1 h at 4° C., and the resulting supernatant was used for prolyl and lysyl hydroxylase assays (Murad and Pinnell, J. Biol. Chem. 262:11, 973 (1987)). The enzyme activities are based on a unit of soluble cell protein.
The protein content of cell extracts was determined by a dye-binding technique using Bio-Rad reagent and protein standard (Bradford, Anal. Biochem. 72:248 (1976)).
Note: Cultures of human skin fibroblasts grown to confluence were
incubated for 72 h in medium supplemented with 1% ethanol containing 1 mM
of the indicated compounds. Cells were then harvested, and the enzyme
activity in extracts of these cells was measured by a tritiumrelease
incubated for 72 h in medium supplemented with 1% ethanol containing 1 nM

lysyl hydroxylase [2] = experiment: Lysyl hydroxylase activity in extracts of treated human skin fibroblasts (Example 2, pyridine, triazine and N-alkyl analogs); conditions: for pIC50: 72 hr (FIG. 4, FIG. 5), read-out: concentration giving 50% inhibition (lysyl hydroxylase)
Protocol: (§2) Cells were treated for 72 hr with minoxidil or its triazine analog at the indicated concentrations. The enzyme activities in extracts of treated cells were measured by tritium release assays (Murad and Pinnell, J. Biol. Chem. 262:11,973 (1987)) and are expressed as a percentage of zero-concentration values. PH, prolyl hydroxylase; LH, lysyl hydroxylase.
Cells were treated for 72 hr with various concentrations of minoxidil or its N-alkyl analogs as indicated. The enzyme activity in extracts of treated cells was measured by tritium release assays (Murad and Pinnell, J. Biol. Chem. 262:11,973 (1987)) and is expressed as a percentage of zero-concentration value. The minoxidil curve is reproduced from FIG. 4.
Cultures of human skin fibroblast (1.5×10^6 cells) were seeded onto 100-mm plates and incubated at 37° in Dulbecco's modified Eagle's medium supplemented with 20% calf serum. After 24 hr, the medium was replaced with medium supplemented with 0.5% heat-inactivated dialyzed calf serum. The incubation was continued for an additional 72 hr in the presence of 0.1-2 μM minoxidil analogs dissolved in 0.12N HCl; the final concentration of HCl was 0.0012N or 0.0024N. Cells treated with HCl only served as control. During the last 3 hr of incubation, cells received […] ascorbic acid to ensure complete hydroxylation of the polypeptide precursors of procollagen (Murad et al, J. Invest. Dermatol. 75:404 (1980)). At the end of the incubation period, cells were harvested by trypsinization and disrupted by sonication in a buffered medium (Murad et al, J. Biol. Chem. 262:11,973 (1987)).
(§3) Lysyl hydroxylase activity in extracts of treated cells was measured with an underhydroxylated procollagen substrate (Murad et al, J. Biol. Chem. 262:11,973 (1987)), which was prepared by labeling cultures of human skin fibroblasts with L-[4,5-^3 H]lysine in the presence of an iron chelator α,α'-dipyridyl (Murad and Pinnell, Conn. Tiss. Res. 13:181 (1985)). The amount of tritium released was quantitated as ^3 HO after vacuum distillation . Prolyl hydroxylase activity was similarly measured with an underhydroxylated procollagen substrate containing L-[4-^3 H]proline (Murad and Pinnell, J. Biol. Chem. 262:11973 (1987); Murad and Pinnell, Conn. Tiss. Res. 13:181 (1985)). The enzyme activities are based on a unit of soluble cell protein. The protein content of cell extracts was determined by a dye-binding techniques using Bio-Rad reagents (Bradford, Anal. Biochem. 72:248 (1976)).
Cells were treated for 72 hr with 1 mM minoxidil or its
structural analogs as indicated. The enzyme activity in extracts
of treated cells was measured by a tritium-release assay and is
expressed as a percentage of HCl-treated control.

prolyl hydroxylase = experiment: Prolyl hydroxylase activity in extracts of treated human skin fibroblasts (Example 2); conditions: 72 hr; N,N-diethyl analog up to 2 mM
Protocol: as §2
Cultures of human skin fibroblast (1.5×10^6 cells) were seeded onto 100-mm plates and incubated at 37° in Dulbecco's modified Eagle's medium supplemented with 20% calf serum. After 24 hr, the medium was replaced with medium supplemented with 0.5% heat-inactivated dialyzed calf serum. […] Cells treated with HCl only served as control. […]
as §3, with “The enzyme activities are based on a unit of soluble cell protein. The protein content of cell extracts was determined by a dye-binding techniques using Bio-Rad reagents (Bradford, Anal. Biochem. 72:248 (1976)).” left out

lysyl hydroxylase [3] = experiment: Lysyl hydroxylase activity in extracts of treated human skin fibroblasts (Example 1, tritium-release assay)
[4] = 1 nM, % of ethanol-treated controls (Table II)
[5] = 1 mM, % of solvent-treated controls (Table I)

## Cc1c([N+](=O)[O-])c(N2CCCCC2)nc(N)[n+]1[O-] [Compound VI (Table II)]
Lysyl hydroxylase [1]; [4]
  Lysyl hydroxylase activity (%): 34%
Lysyl hydroxylase [1]
  effect on lysyl hydroxylase activity (in words): no significant effect on its inhibitory activity

## Cc1cc(N2CCCC2)nc(N)[n+]1[O-] [Compound VII (Table II)]
Lysyl hydroxylase [1]; [4]
  Lysyl hydroxylase activity (%): 88%
Lysyl hydroxylase [1]
  effect on lysyl hydroxylase activity (in words): inactive

## [O-][n+]1cccc(O)c1 [3-Hydroxypyridine-N-oxide]
Lysyl hydroxylase [1]; [5]
  Lysyl hydroxylase activity (%): 99%

## CC1(C)CCC=[N+]1[O-] [5,5-Dimethyl-1-pyrroline-N-oxide]
Lysyl hydroxylase [1]; [5]
  Lysyl hydroxylase activity (%): 103%

## Nc1nc(N2CCCCC2)nc(N)[n+]1[O-] [Compound II (Table III)]
Lysyl hydroxylase [2]
  pIC50: ~3.10
Lysyl hydroxylase [2]; 72 hr, Example 2, listed as triazine analog
  effect on lysyl hydroxylase activity (in words): no significant effect up to 0.2 mM; also recorded: less potent than minoxidil
Prolyl hydroxylase
  effect on prolyl hydroxylase activity (in words): failure to decrease the activity of prolyl hydroxylase

## CN1CCN(c2cc(N)[n+]([O-])c(N)n2)CC1 [Compound IX (Table II)]
Lysyl hydroxylase [1]
  effect on lysyl hydroxylase activity (in words): inactive
Lysyl hydroxylase [3]; 0.1 mM, dissolved in HCl, final concentration 0.0012 N, 72 h (Table II footnote a)
  Lysyl hydroxylase activity (%): 109%

## Cc1cc(N2CCOCC2)nc(N)[n+]1[O-] [Compound VIII (Table II)]
Lysyl hydroxylase [1]; [4]
  Lysyl hydroxylase activity (%): 91%
Lysyl hydroxylase [1]
  effect on lysyl hydroxylase activity (in words): inactive

## [O-][n+]1ccc(-c2ccccc2)cc1 [4-Phenylpyridine-N-oxide]
Lysyl hydroxylase [3]; 0.3 mM, dissolved in ethanol, final concentration 0.3%, 72 h, % of solvent-treated controls (Table I)
  Lysyl hydroxylase activity (%): 99%

## Nc1[nH]c(=O)c2nc[nH]c2[n+]1[O-] [Guanine 3-N-oxide]
Lysyl hydroxylase [1]
  increase of the level of lysyl hydroxylase activity: 30-40%
Lysyl hydroxylase [3]; 1 mM, dissolved in NaOH, final concentration 0.001 N, 72 h, % of solvent-treated controls (Table I)
  Lysyl hydroxylase activity (%): 132%

## CC1(C)CC(O)CC(C)(C)N1[O] [4-Hydroxy-2,2,6,6-tetramethylpiperidine-N-oxyl]
Lysyl hydroxylase [1]; [5]
  Lysyl hydroxylase activity (%): 130%
Lysyl hydroxylase [1]
  increase of the level of lysyl hydroxylase activity: 30-40%

## CCN(CC)c1cc(N)[n+]([O-])c(N)n1 [Compound III (Table III)]
Lysyl hydroxylase [2]
  pIC50: ~3.00
Prolyl hydroxylase
  effect on prolyl hydroxylase activity (in words): no significant effect on prolyl hydroxylase activity

## O=C(O)c1cc[n+]([O-])cc1 [Isonicotinic acid N-oxide]
Lysyl hydroxylase [3]; 1 mM, dissolved in aqueous medium, 72 h, % of solvent-treated controls (Table I)
  Lysyl hydroxylase activity (%): 90%
